Data as given in US20230124862A1, “BISMUTH THIOL COMPOUNDS AND COMPOSITIONS AND METHODS OF TREATING MICROBIAL CO-INFECTIONS” (Microbion Corporation, priority 2020, published 2023).
≈ marks a conversion by molar mass, not a printed value. Read-outs that look alike come from different tables or passages of the source. Values belong to the compound of their own block, whether it stands above or below them.

What was measured:
[1] = system: S. aureus ATCC 29213; test: Broth microdilution MIC (Example 12), ATCC QC organism; conditions: ATCC QC organism (Table 102)
[2] = system: S. aureus ATCC 29213; conditions: CLSI established QC range; cited from earlier work
[3] = system: vancomycin-intermediate Staphylococcus aureus (VISA); test: Broth microdilution MIC (Example 12); format: cell-based
[4] = system: C. parapsilosis ATCC 22019; test: Antifungal broth microdilution (Example 13), QC organism; format: cell-based, Candida parapsilosis; conditions: 24 hr, comparators, single value
[5] = system: C. parapsilosis ATCC 22019; conditions: C. parapsilosis ATCC 22019, CLSI established QC range, cited from earlier work
[6] = system: S. aureus ATCC 29213; test: MIC control strain; conditions: QC organism, Example 13
[7] = system: Candida spp.; conditions: C. parapsilosis MMX 2323 (ATCC 22019), cited from earlier work
[8] = system: Candida spp.; test: Broth microdilution MIC (Example 11); format: cell-based, C. parapsilosis, C. albicans, C. glabrata, C. tropicalis; conditions: read-out: MIC
[9] = system: E. coli ATCC 25922; test: MIC control strain; conditions: QC organism, Example 13
[10] = system: Candida krusei; conditions: C. krusei ATCC 6258, CLSI established QC range, cited from earlier work
[11] = system: fungal pathogens; test: Antifungal activity, NIH/NIAID sponsored study; format: cell-based; conditions: 50% endpoint
[12] = system: Candida krusei; test: Antifungal broth microdilution (Example 13); format: cell-based; conditions: C. krusei ATCC 6258, comparators, single value
[13] = system: Aspergillus spp.; test: Antifungal broth microdilution (Example 13); format: cell-based, A. niger, A. terreus, A. fumigatus, A. flavus
[14] = system: Gram-positive aerobic bacteria (S. aureus, MRSA, CA-MRSA); test: MIC90 against 150 clinical isolates of Gram-positive aerobic bacteria; format: cell-based; conditions: S. aureus (50 isolates)

Structure (SMILES): CCC[C@@H]1C[C@@H](C(=O)N[C@@H]([C@H]2O[C@H](SC)[C@H](O)[C@@H](O)[C@H]2O)[C@H](C)Cl)N(C)C1 [CLI]
- MIC [1]: 0.25 µg/mL (≈ 0.588 µM)
- QC range of MIC [2]: (0.06-0.25) μg/mL
- MIC ([3]; S. aureus NRS 1 (hVISA)): >8 µg/mL
- MIC ([3]; S. aureus NRS 2): >8 µg/mL
- MIC ([3]; S. aureus NRS 3): >8 µg/mL
- MIC ([3]; S. aureus NRS 4): >8 µg/mL
- MIC ([3]; S. aureus NRS 13): 0.06 µg/mL (≈ 0.141 µM)
- MIC ([3]; S. aureus NRS 18): >8 µg/mL
- MIC ([3]; S. aureus NRS 22): >8 µg/mL
- MIC ([3]; S. aureus NRS 24 (hVISA)): >8 µg/mL
- MIC ([3]; S. aureus NRS 27): >8 µg/mL

Structure (SMILES): OC(Cn1cncn1)(Cn1cncn1)c1ccc(F)cc1F [Fluconazole]
- MIC 24 hr [4]: 1 µg/mL (≈ 3.27 µM)
- QC Range 24 hr ([5]; 24 hr): 0.5-4
- QC Range 48 hr ([5]; 48 hr): 1-4
- MIC 24 hr [6]: >64
- CLSI QC range of MIC ([7]; 24 hr): 0.5 to 4 µg/mL
- CLSI QC range of MIC ([7]; 48 hr): 1 to 4 µg/mL
- MIC ([8]; 24 h, C. albicans MMX 7039, Sensitive, incubation 24 hr): 0.5 µg/mL (≈ 1.63 µM)
- MIC ([8]; 24 h, C. glabrata MMX 7318, FLU^R, incubation 24 hr): > 64 µg/mL
- MIC ([8]; 24 h, C. parapsilosis MMX 2323 (ATCC 22019), QC, incubation 24 hr): 2 µg/mL (≈ 6.53 µM)
- MIC ([8]; 24 h, C. parapsilosis MMX 7370, FLU^R, incubation 24 hr): 32 µg/mL (≈ 104 µM)
- MIC ([8]; 24 h, C. tropicalis MMX 7247, FLU^R, incubation 24 hr): 64 µg/mL (≈ 209 µM)
- MIC ([8]; 24 h, C. tropicalis MMX 7360, FLU^R, incubation 24 hr): 64 µg/mL (≈ 209 µM)
- MIC ([8]; 48 h, C. albicans MMX 7039, Sensitive, incubation 48 hr): 0.5 µg/mL (≈ 1.63 µM)
- MIC ([8]; 48 h, C. albicans MMX 7055, Sensitive, incubation 48 hr): 0.5 µg/mL (≈ 1.63 µM)
- MIC ([8]; 48 h, C. glabrata MMX 7318, FLU^R, incubation 48 hr): > 64 µg/mL
- MIC ([8]; 48 h, C. glabrata miX 7086, FLU^R, incubation 48 hr): 64 µg/mL (≈ 209 µM)
- MIC ([8]; 48 h, C. parapsilosis MMX 2323 (ATCC 22019), QC, incubation 48 hr): 2 µg/mL (≈ 6.53 µM)
- MIC ([8]; 48 h, C. parapsilosis MMX 7555, FLU^R, incubation 48 hr): 64 µg/mL (≈ 209 µM)
- MIC ([8]; 48 h, C. tropicalis MMX 7247, FLU^R, incubation 48 hr): > 64 µg/mL
- MIC ([8]; 48 h, C. tropicalis MMX 7248, FLU^R, incubation 48 hr): > 64 µg/mL
- MIC ([8]; 48 h, C. tropicalis MMX 7360, FLU^R, incubation 48 hr): > 64 µg/mL
- MIC 24 hr [9]: >64
- QC Range 24 hr ([10]; 24 hr): 8-64
- QC Range 48 hr ([10]; 48 hr): 16-128
- MIC50 ([11]; Candida albicans, read-out: Antifungal activity, MIC 50%, C. albicans CA1): ≤ 0.125 µg/mL
- MIC50 ([11]; Candida albicans, read-out: Antifungal activity, MIC 50%, C. albicans CA2): ≤ 0.125 µg/mL
- MIC50 ([11]; Candida albicans, read-out: Antifungal activity, MIC 50%, C. albicans CA3): > 64 µg/mL
- MIC50 ([11]; Candidozyma auris, read-out: Antifungal activity, MIC 50%, C. auris Cau1): > 64 µg/mL
- MIC50 ([11]; Candidozyma auris, read-out: Antifungal activity, MIC 50%, C. auris Cau2): 2 µg/mL (≈ 6.53 µM)
- MIC50 ([11]; Candidozyma auris, read-out: Antifungal activity, MIC 50%, C. auris Cau3): > 64 µg/mL
- MIC50 ([11]; Cryptococcus neoformans, read-out: Antifungal activity, MIC 50%, C. neoformans CN1): 64 µg/mL (≈ 209 µM)
- MIC50 ([11]; Cryptococcus neoformans, read-out: Antifungal activity, MIC 50%, C. neoformans CN2): 64 µg/mL (≈ 209 µM)
- MIC50 ([11]; Cryptococcus neoformans, read-out: Antifungal activity, MIC 50%, C. neoformans CN3): 2 µg/mL (≈ 6.53 µM)
- MIC50 ([11]; Lodderomyces parapsilosis, ATCC22019, read-out: Antifungal activity, MIC 50%, C. parapsilosis ATCC22019): 1 µg/mL (≈ 3.27 µM)
- MIC50 ([11]; Pichia kudriavzevii, ATCC6258, read-out: Antifungal activity, MIC 50%, C. krusei ATCC6258): 16 µg/mL (≈ 52.2 µM)
- MIC 24 hr ([12]; 24 hr): 16 µg/mL (≈ 52.2 µM)
- MIC 48 hr ([12]; 48 hr): 32 µg/mL (≈ 104 µM)
- MIC 24 hr ([13]; A. flavus ATCC 204304): > 64 µg/mL
- MIC 48 hr ([13]; A. flavus ATCC 204304): > 64 µg/mL
- MIC 24 hr ([13]; A. fumigatus ATCC MYA-3626): > 64 µg/mL
- MIC 48 hr ([13]; A. fumigatus ATCC MYA-3626): > 64 µg/mL

- MIC90 ([14]; CA-MRSA): 4 µg/mL (≈ 11.9 µM)
- MIC90 ([14]; MRSA): 4 µg/mL (≈ 11.9 µM)
- MIC90 ([14]; MSSA): 4 µg/mL (≈ 11.9 µM)
- MIC [1]: 4 µg/mL (≈ 11.9 µM)
- MIC ([3]; S. aureus NRS 1 (hVISA)): 1 µg/mL (≈ 2.96 µM)
- MIC ([3]; S. aureus NRS 2): 4 µg/mL (≈ 11.9 µM)
- MIC ([3]; S. aureus NRS 3): 1 µg/mL (≈ 2.96 µM)
- MIC ([3]; S. aureus NRS 4): 1 µg/mL (≈ 2.96 µM)
- MIC ([3]; S. aureus NRS 13): 2 µg/mL (≈ 5.93 µM)
- MIC ([3]; S. aureus NRS 18): 1 µg/mL (≈ 2.96 µM)
- MIC ([3]; S. aureus NRS 22): 1 µg/mL (≈ 2.96 µM)
- MIC ([3]; S. aureus NRS 24 (hVISA)): 2 µg/mL (≈ 5.93 µM)
- MIC ([3]; S. aureus NRS 27): 2 µg/mL (≈ 5.93 µM)
Structure (SMILES): CC(=O)NC[C@H]1CN(c2ccc(N3CCOCC3)c(F)c2)C(=O)O1 [LZD]
- QC range of MIC [2]: (1-4) μg/mL

Structure (SMILES): CN[C@H](CC(C)C)C(=O)N[C@H]1C(=O)N[C@@H](CC(N)=O)C(=O)N[C@H]2C(=O)N[C@H]3C(=O)N[C@H](C(=O)N[C@H](C(=O)O)c4cc(O)cc(O)c4-c4cc3ccc4O)[C@H](O)c3ccc(c(Cl)c3)Oc3cc2cc(c3O[C@@H]2O[C@H](CO)[C@@H](O)[C@H](O)[C@H]2O[C@H]2C[C@](C)(N)[C@H](O)[C@H](C)O2)Oc2ccc(cc2Cl)[C@H]1O [VAN]
- MIC90 ([14]; CA-MRSA): 1 µg/mL (≈ 0.69 µM)
- MIC90 ([14]; MRSA): 2 µg/mL (≈ 1.38 µM)
- MIC90 ([14]; MSSA): 1 µg/mL (≈ 0.69 µM)
- MIC [1]: 0.5 µg/mL (≈ 0.345 µM)
- QC range of MIC [2]: (0.5-2) μg/mL
- MIC ([3]; S. aureus NRS 1 (hVISA)): 4 µg/mL (≈ 2.76 µM)
- MIC ([3]; S. aureus NRS 2): 0.5 µg/mL (≈ 0.345 µM)
- MIC ([3]; S. aureus NRS 3): 8 µg/mL (≈ 5.52 µM)
- MIC ([3]; S. aureus NRS 4): 4 µg/mL (≈ 2.76 µM)
- MIC ([3]; S. aureus NRS 13): 2 µg/mL (≈ 1.38 µM)
- MIC ([3]; S. aureus NRS 18): 4 µg/mL (≈ 2.76 µM)
- MIC ([3]; S. aureus NRS 22): 4 µg/mL (≈ 2.76 µM)
- MIC ([3]; S. aureus NRS 24 (hVISA)): 2 µg/mL (≈ 1.38 µM)
- MIC ([3]; S. aureus NRS 27): 2 µg/mL (≈ 1.38 µM)
